Assay results taken from patent publication US10064862B2, “Antiviral axin stabilizer” (priority 2014, dated 2018).
Entries after “also recorded” stand apart in the source; their conditions may differ.

Columns and labels:
A549 cells = settings: all the concentrations tested (30-80,000 nM), MTT assay
Axin1 [1] = assay: Axin1 stabilization in A549 cells (immunostaining, Western blot); format: cell-based, human
[2] = system: IFN and IFN-stimulated gene (ISG) expression; assay: IFNα1 and MX1 mRNA by Real-time PCR in primary mouse alveolar epithelial cells; format: cell-based
Axin1 [3] = format: in vivo, mouse; settings: oral administration of RN-1 for 24 hours, 50 mg/kg
[4] = system: H1N1 influenza A/PR/8/34 virus; format: cell-based
[5] = system: H1N1 influenza A/PR/8/34 virus; assay: Lethal influenza virus challenge in mice (lung virus titer, survival); format: in vivo, mouse; settings: for survival rate after lethal virus challenge: mice, 1,000 pfu, RN-1 50 mg/kg orally daily, -1 to 2 or 4 dpi
Experimental: Mice were challenged intranasally with a lethal dose (1,000 pfu) of H1N1 influenza A/PR/8/34 virus. […] Control animals received vehicle alone. […] (C) Virus titer in the homogenized infected lungs at 2 dpi was measured by TCID50 assay in MDCK cells and normalized to total protein amount. […] Data shown are means±s.e.m. and tested for statistical significance by Student's t-test. (D) Survival rate. […] Mantel-Cox χ2 test on Kaplan-Meier survival data was used to compare the survival rate between groups.
Male C57BL/6N mice (6-8 week old) were challenged intranasally with a lethal dose (1,000 pfu) of influenza virus A/PR/8/34 H1N1 under anesthesia. […] Control animals were given vehicle alone in the same formulation. All animals were observed daily for body weight loss and clinical signs of disease such as ruffled fur, inactivity and difficulty in breathing until 21 days post infection.
MDCK cells in 96-well plates were infected with serial dilutions (10^−1 to 10^−7) of virus samples in serum-free complete EMEM containing 1 μg/ml TPCK-treated trypsin for 1 hour. The cells were re-fed with the same medium for 4 days. TCID50 values (median tissue culture infective dose) were calculated by the method of Reed and Muench.
The results were analyzed by one-way ANOVA followed with posthoc Tukey's test for multiple comparisons of control and treatment groups, or Student's t-test using GraphPad Prism (version 6). Survival rates between groups were analyzed by Mantel-Cox χ2 test on Kaplan-Meier probability estimates using GraphPad Prism. All results were reported as mean±s.e.m.

[6] = system: nonO/p54(nrb), SFPQ, and hnRNP M; format: cell-based, human; settings: A549 cells, 20 μM RN-1 24 hours pretreatment, MOI=2
herpes simplex virus = settings: previously reported; cited from earlier work
[7] = system: H1N1 influenza A/PR/8/34 virus; assay: organism not typed; format: cell-based
ISRE activity = assay: ISRE_Luc dual-luciferase assay in OE-Axin1 HEK293 cells pretreated with inhibitors; format: cell-based, human; settings: 10 μM inhibitor, OE-Axin1, MOI=2 for 8 hours
[8] = system: H1N1 influenza A/PR/8/34 virus; assay: Viral gene mRNA in OE-Axin1 HEK293 cells pretreated with inhibitors; format: cell-based
[9] = system: Axin1-stimulated IFN response; assay: Axin1-stimulated IFN and ISG mRNA in OE-Axin1 HEK293 cells pretreated with inhibitors; format: cell-based, human; settings: OE-Axin1, MOI=2
[10] = system: H1N1 influenza A/PR/8/34 virus; format: cell-based; settings: E10 cells, 250 ng/ml rhWnt3a or 50% Wnt3a_CM 24 hours pretreatment, MOI=2 for 18 hours
[11] = system: influenza virus A/Puerto Rico/8/1934 H1N1; format: in vivo, mouse; settings: mice, 250 pfu, 50 μl 10× Wnt3a_CM intranasally 4 hours before and 2 days post infection, lungs day 5
[12] = primary mouse alveolar epithelial cells during virus infection, 20 μM RN-1, 12 hpi
[13] = 10 μM inhibitor 6 hours pretreatment

Q: With `Oc1nc(-c2ccc(C(F)(F)F)cc2)nc2c1CSCC2` [RN-1, 3,5,7,8-Tetrahydro-2-[4-(trifluoromethyl)phenyl]-4H-thiopyrano[4,3-d]pyrimidin-4-one] as the molecule, how does the cell viability (A549 cells) read?
A: Its cell viability is “did not affect cell viability”.

Q: What about the “Axin1 protein during influenza virus infection” value (Axin1 [1]) of the same molecule?
A: The value was “Axin1 was not degraded”.

Q: What about the “mRNA expression of IFNα1” value [2, 12] of the same molecule?
A: Its value is “increased the mRNA expression”.

Q: And the “mRNA expression of the ISG MX1” value [2, 12]?
A: The value was “increased the mRNA expression”.

Q: What about the “baseline IFN gene expression” value ([2]; uninfected cells) of the same molecule?
A: Its value is “had no effects”.

Q: And the “Axin1 protein in the mouse lung” value (Axin1 [3])?
A: Its value is “successfully stabilized Axin1”.

Q: And the “virus replication (virus titer)” value [4]?
A: The value was “notably inhibited; also recorded: significantly inhibited virus replication”.

Q: What about the “survival rate after lethal virus challenge” value [5] of the same molecule?
A: The value was “dramatically improved”.

Q: And the “survival rate after lethal virus challenge” value ([5]; listed as XAV939)?
A: The value was “protected animals from lethal influenza virus challenge”.

Q: What about the “influenza virus replication in vivo (virus titer in infected lungs at 2 dpi)” value ([5]; mouse, in vivo, po) of the same molecule?
A: The value was “significantly attenuated”.

Q: What about the “degradation of nonO/p54(nrb), SFPQ and hnRNP M” value [6] of the same molecule?
A: Its value is “stimulated the degradation of all three proteins”.

Q: And the “herpes simplex virus replication” value (herpes simplex virus)?
A: The value was “inhibit herpes simplex virus replication”.

Q: What about the “maximum inhibition of influenza virus replication” value [7] of the same molecule?
A: The value was “over 99%”.

Q: And the “virus replication (virus titer in supernatants)” value [7]?
A: The value was “significantly attenuated”.

Q: What about the EC50 ([7]; A549, 24 h, read-out: EC50 of attenuation of influenza virus replication (virus titers in culture media)) of the same molecule?
A: Its EC50 is 419 nM.

Q: For `COc1cc2c(cc1OC)CN(C(=O)/C=C/c1c(-c3ccccc3)n(C)c3ncccc13)CC2` [SIS3], which “Axin1-stimulated ISRE activity” value (ISRE activity) is on record?
A: The value was “the same inhibitory effect”.

Q: What about the “effect on Axin1-mediated attenuation of influenza virus replication (viral gene mRNA)” value [8] of the same molecule?
A: The value was “relived Axin1-mediated attenuation of influenza virus replication”.

Q: And the “Axin1-stimulated IFN mRNA expression (IFNβ1, IFNα1, IFNα7, IFNλ1)” value [9, 13]?
A: Its value is “the same inhibitory effect on Axin1-elevated anti-viral machinery except IFNβ1 synthesis (FIG. 7A) and MX1 expression (FIG. 7E); also recorded: only inhibited Axin1-induced expression of IFNα but not IFNβ1”.

Q: What about the “Axin1-stimulated ISGs expression (OAS1, MX1, IP10)” value [9, 13] of the same molecule?
A: The value was “the same inhibitory effect on Axin1-elevated anti-viral machinery except IFNβ1 synthesis (FIG. 7A) and MX1 expression (FIG. 7E)”.

Q: What about the “Axin1-regulated Type I and Type III IFN synthesis” value ([9]; 10 μM inhibitor) of the same molecule?
A: Its value is “the same inhibitory effect in both scenarios”.

B1: Wnt3a: activator of Wnt/β-catenin signaling, given as rhWnt3a or Wnt3a_CM (protein, UniProt P56704 19-352, looked up)
Protein Wnt-3a: SYPIWWSLAVGPQYSSLGSQPILCASIPGLVPKQLRFCRNYVEIMPSVAEGIKIGIQECQHQFRGRRWNCTTVHDSLAIFGPVLDKATRESAFVHAIASAGVAFAVTRSCAEGTAAICGCSSRHQGSPGKGWKWGGCSEDIEFGGMVSREFADARENRPDARSAMNRHNNEAGRQAIASHMHLKCKCHGLSGSCEVKTCWWSQPDFRAIGDFLKDKYDSASEMVVEKHRESRGWVETLRPRYTYFKVPTERDLVYYEASPNFCEPNPETGSFGTRDRTCNVSSHGIDGCDLLCCGRGHNARAERRREKCRCVFHWCCYVSCQECTRVYDVHTCK
Q: For B1, which “virus replication in vitro (viral gene mRNA)” value [10] is on record?
A: Its value is “dramatically promotes virus replication”.

Q: And the “virus replication in vivo (viral gene mRNA in lungs)” value [11]?
A: Its value is “dramatically promotes virus replication”.
